Series [1] is described as follows: MetID on in vivo dog samples (plasma, urine). More on the design: species or system dog (beagles). As to conditions: sampled at 3 h and 30 min. As for the experimental part:
(§1) The workup procedure could vary somewhat depending on the compound and dose, but the general procedure was as follows: Two volumes of ACN/methanol (1:1, v:v) were added to the plasma samples and vortex-mixed to precipitate the proteins. Thereafter, the samples were centrifuged for 10 min (at 10,000 g and 4 °C), and the supernatants were diluted with one volume of water. The urine samples were diluted with one volume of ACN/methanol (1:1, v:v) and centrifuged for 10 min (at 10,000 g and 4 °C), followed by a 1:1 dilution with water.
(§2) Structural characterization of metabolites and metabolite profiling were performed using the Waters Acquity ultraperformance liquid chromatography (UPLC) system fitted to a Waters High-Resolution Mass Spectrometer (MS) (Xevo G2-S, Synapt G2-Si, or a Synapt XS MS). The Waters MS systems, equipped with an electrospray ionization (ESI) source, were operated in positive-ion sensitivity mode over a mass range m/z 50–1200 and in negative-ion sensitivity mode over a mass range m/z of 50–1200.
(§3) The reversed-phase gradient elution was performed on an Acquity U(H)-PLC BEH C18 column (2.1 × 100 mm, 1.7 μm, Waters) set at 45 °C. The mobile phases consisted of 0.1% FA in water (A) and ACN (B). […] The injection volume was 2 μL. The MS settings were optimized for the respective MS instrument. […] A scan time of 0.1 s was used, and data were acquired in centroid mode. Collision energy was set to “off” for the low-energy function, whereas in the high-energy MSe functions, the collision energies were typically ramped from 15 to 35 V in the trap cell, with constant collision energies of 20 V in their transfer cells. Cone voltage was set to 25 V for both low- and high-energy functions. For dedicated MS/MS, the m/z of the molecular ion was selected in the quadrupole, and the mass range for fragmentation analysis was typically set between 50 and 1200. The collision energies were either the same as those stated above for MSe data generation or optimized for a specific metabolite. Tune parameters for all MS analyses consisted of a capillary energy of 0.5 kV, sampling cone energy of 40 V, source temperature of 150 °C, desolvation temperature of 550 °C, cone gas flow of 0 L/h, desolvation gas flow of 1200 L/h, and nebulizer pressure of 6.5 bar.
(§4) Metabolite identification was conducted by processing the generated data using the MetaboLynx XS browser (Waters), MassMetaSite and the web interface ONIRO (Mass Analytica). […] Accurate masses of metabolites were determined from the protonated molecules in the positive ESI time-of-flight MS (ESI–TOF–MS) mode and from the deprotonated molecules in the negative ESI–TOF–MS mode. […] For those metabolites where no MS/MS data could be acquired, identification was based on the accurate mass of the molecular ion and the fragmentation seen in the MSe spectrum. Relative amounts of detected metabolites were calculated as % of the total MS area by dividing the MS peak area for the metabolite (or parent compound) by the combined MS peak area for the parent compound and all identified metabolites.

The nature of series [2]: MetID on in vivo rat plasma samples. The arrangement: species or system rat (Han Wistar). The method, then: as §1, §2, §3, §4
A further series concerns rat hepatocytes. In words: Metabolite identification in rat hepatocyte incubations. The class given is in vitro ADME. The note with it: Cmpd 28 incubated for 120 min, 4 μM. As for the experimental part:
(§5) Cryopreserved, pooled primary human, dog, and rat hepatocytes were obtained from BioIVT (previously Celsis IVT). L-15 Leibovitz buffer was placed in a water bath to reach 37 °C. Cryopreserved hepatocytes were transferred from a −150 °C freezer on dry ice and immediately immersed in a preheated water bath kept at 37 °C for thawing. When only a small ice crystal could be seen, the content was emptied into a 50 mL falcon tube filled with warm buffer (maximum four vials/falcon tube). The suspension was centrifuged at room temperature for 3 min at 50 g. The supernatant was removed, the pellet was resuspended in a small volume of buffer, and the falcon tube was refilled with buffer, followed by another centrifugation to wash away any remaining storage buffer. Thereafter, the supernatant was removed, and the pellet was dissolved in a small volume of buffer and diluted to a concentration of about 3–5 million cells/mL. After counting the cells using a Casy cell counter, the suspension was diluted to 1 million viable cells/mL and kept at room temperature until use. The viability cutoff was 80%.
(§6) An aliquot of 245 μL of hepatocyte suspension was added to a round-bottomed 96-deep-well plate using a manual multipipette. The deep-well plate was preincubated for 15 min at 37 °C and 13 Hz. Substrate solutions of the assay compounds were prepared by the robot in a 96-well plate as follows: 4 μL of 10 mM DMSO stock solution, followed by the addition of 96 μL of ACN:water (1:1, v:v) and mixing by shaking. 50 μL from each well were transferred to and combined in a new plate, resulting in 100 μL per well and a dilution of 1:1.
The reaction was started by the addition of 5 μL of 200 μM substrate solution to the preheated hepatocyte suspension, resulting in a final substrate concentration of 4 μM (0.04% DMSO, <0.5% ACN). The incubation was continued at 37 °C and 13 Hz. At each time point (0, 40, and 120 min), a 50 μL sample was taken out and quenched in 200 μL of cold ACN:methanol (1:1, v:v), and the stopped plates were centrifuged for 20 min (set at 4 °C and 4000 g). […]

A further series has as its system dog hepatocytes. Put plainly: Metabolite identification in dog hepatocyte incubations. The class given is in vitro ADME. The note with it: Cmpd 28 incubated for 120 min, 4 μM. The method, then:
as §5, §6
The reaction was started by the addition of 5 μL of 200 μM substrate solution to the preheated hepatocyte suspension, resulting in a final substrate concentration of 4 μM (0.04% DMSO, <0.5% ACN). The incubation was continued at 37 °C and 13 Hz. At each time point (0, 40, and 120 min), a 50 μL sample was taken out and quenched in 200 μL of cold ACN:methanol (1:1, v:v), and the stopped plates were centrifuged for 20 min (set at 4 °C and 4000 g). The supernatant was diluted by taking 50 μL and mixing it with 100 μL of water. Incubations of the positive controls, albendazole and dextromethorphan, were performed in parallel as described above.
as §2
The reversed-phase gradient elution was performed on an Acquity U(H)-PLC BEH C18 column (2.1 × 100 mm, 1.7 μm, Waters) set at 45 °C. The mobile phases consisted of 0.1% FA in water (A) and ACN (B). […] The injection volume was 2 μL. The MS settings were optimized for the respective MS instrument. […] A scan time of 0.1 s was used, and data were acquired in centroid mode. Collision energy was set to “off” for the low-energy function, whereas in the high-energy MSe functions, the collision energies were typically ramped from 15 to 35 V in the trap cell, with constant collision energies of 20 V in their transfer cells. Cone voltage was set to 25 V for both low- and high-energy functions. For dedicated MS/MS, the m/z of the molecular ion was selected in the quadrupole, and the mass range for fragmentation analysis was typically set between 50 and 1200. The collision energies were either the same as those stated above for MSe data generation or optimized for a specific metabolite.

Where [3] appears, read: after Cmpd 16, semiquantitative.
The mark [4] stands for this setting: after Cmpd 16, oral, sampled at 60 min.

On to `O=C(O)[C@@H]1CCCC[C@H]1C(=O)c1ccc(-c2cc[nH]n2)cc1` [Cmpd 16 M10], for which the “% of the total MS area, Dog Plasma (Female)” value in series [1] (setting [3]) turned out to be 1%. Further, in series [2] (setting [4]), the “% of the total MS area, Rat Plasma (Female)” value was 1% and the “% of the total MS area, Rat Plasma (Male)” value is on record as 1%.
As to `O=C(Nc1c[nH]nc1C(F)(F)F)[C@@H]1CCCC[C@H]1C(=O)c1ccc(-c2cc[nH]n2)cc1` [Cmpd 16 M12], the “% of the total MS area, Dog Plasma (Female)” value in series [1] (setting [3]) is listed as 2%. Also, the “% of the total MS area, Rat Plasma (Female)” value in series [2] (setting [4]) turned out to be 2%.
For the compound `O=C(O)[C@H]1OC(OC(=O)[C@@H]2CCCC[C@H]2C(=O)c2ccc(-c3cc[nH]n3)cc2)[C@H](O)[C@@H](O)[C@@H]1O` (some centres unmarked) [Cmpd 16 M13], in series [1] (setting [3]), the “% of the total MS area, Dog Plasma (Female)” value is reported as 0.5%.
Take `Cc1cc(-c2ccc(C(=O)[C@@H]3CCCC[C@H]3C(=O)O)cc2)n[nH]1` [Cmpd 28 M1]: the “% of the total MS area, Rat Hepatocytes (Mixed gender)” value in the series on rat hepatocytes is recorded as “no detection”. For the same compound, the “% of the total MS area, Dog Plasma (Female)” value in series [1] (after Cmpd 28) was 12%. In addition, in the series on dog hepatocytes, the “% of the total MS area, Dog Hepatocytes (Mixed gender)” value is listed as 4%. Moreover, in series [2] (after Cmpd 28, sampled at 4 h), the “% of the total MS area, Rat Plasma (Female)” value amounted to 18% and the “% of the total MS area, Rat Plasma (Male)” value was determined as 17%.
For `Cc1cc(-c2ccc(C(=O)C3CCCCC3C(=O)OC3OC(C(=O)O)C(O)C(O)C3O)cc2)n[nH]1` (centres unmarked) [Cmpd 28 M2] the same measures were “no detection”, 40%, 4%, 1% and 0.5%.
For `Cc1nn(C)cc1NC(=O)[C@@H]1CCCC[C@H]1C(=O)c1ccc(-c2cc(C(=O)O)[nH]n2)cc1` [Cmpd 28 M7], the “% of the total MS area, Dog Plasma (Female)” value in series [1] (after Cmpd 28) is 5%. The “% of the total MS area, Dog Hepatocytes (Mixed gender)” value in the series on dog hepatocytes was “not detected”. Further, in series [2] (after Cmpd 28, sampled at 4 h), the “% of the total MS area, Rat Plasma (Female)” value is reported as “not seen” and the “% of the total MS area, Rat Plasma (Male)” value was “not seen”.
On to `Cc1cc(-c2ccc(C(=O)[C@@H]3CCCC[C@H]3C(N)=O)cc2)n[nH]1` [Cmpd 28 M8], for which, in series [2] (after Cmpd 28, sampled at 4 h), the “% of the total MS area, Rat Plasma (Female)” value is reported as 1% and the “% of the total MS area, Rat Plasma (Male)” value is 3%.
As for `O=C(O)[C@@H]1CCCC[C@H]1C(=O)c1ccc(-c2cc(CO)[nH]n2)cc1` [Cmpd 28 M10], the “% of the total MS area, Rat Plasma (Male)” value in series [2] (after Cmpd 28, sampled at 4 h) worked out at 1%.

The values above are taken from PMC12587390, “Metabolite Identification Data in Drug Discovery, Part 1: Data Generation and Trend Analysis” (Molecular Pharmaceutics, 2025).
